Among the data in PubChem BioAssay AID623928 (NMMLSC, 2012) are LC50 values, retold here.

Activity calls are given as the source filed them.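 The calls were made as follows: active = liver cell toxicity, with the dose killing half the cells under 10 micromolar; inactive = the rest.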

The data set has as its system Fa2N-4 hepatocyte viability, ATP luminescence, 24 h. Briefly: cytotoxicity in immortalized human hepatocytes, late-stage follow-up, cytotoxicity control for GPR30 and estrogen receptor ligands, Fa2N-4 cells (AID 623928).

For `CC(=O)c1ccc2c(c1)[C@@H]1C=CC[C@@H]1[C@H](c1cc3c(cc1Br)OCO3)N2`, the LC50 – broadly, the concentration lethal to half of the exposed cells or organisms – was > 50 µM (inactive).
